One series concerns the target T1, KDR (Homo sapiens, UniProt P35968).
T1 construct: HUVEC cells (from pooled donors) were purchased from Clonetics (San Diego, Calif.) and cultured according to the manufacturer directions; host or cells: HUVEC (pooled donors, passages 3-8)
In words: VEGF-induced KDR phosphorylation in HUVEC measured by Western blots. Format: cell-based. The following applies: VEGF(165) 50 ng/ml, Western blot, read-out: cellular IC50 (VEGF-induced KDR phosphorylation). The procedure: A. VEGF-Induced KDR Phosphorylation in Human Umbilical Vein Cells (HUVEC) as Measured by Western Blots.
1. HUVEC cells (from pooled donors) were purchased from Clonetics (San Diego, Calif.) and cultured according to the manufacturer directions. Only early passages (3-8) were used for this assay. Cells were cultured in 100 mm dishes (Falcon for tissue culture; Becton Dickinson; Plymouth, England) using complete EBM media (Clonetics).
2. For evaluating a compound's inhibitory activity, cells were trypsinized and seeded at 0.5-1.0×10^5 cells/well in each well of 6-well cluster plates (Costar; Cambridge, Mass.).
3. 3-4 days after seeding, plates were 90-100% confluent. Medium was removed from all the wells, cells were rinsed with 5-10 ml of PBS and incubated 18-24 h with 5 ml of EBM base media with no supplements added (i.e., serum starvation).
4. Serial dilutions of inhibitors were added in 1 ml of EBM media (25 uM, 5 uM, or 1 uM final concentration) to cells and incubated for one hour at 37° C. Human recombinant VEGF(165) (R&D Systems) was then added to all the wells in 2 ml of EBM medium at a final concentration of 50 ng/ml and incubated at 37° C. for 10 minutes. Control cells untreated or treated with VEGF only were used to assess background phosphorylation and induction by VEGF.
5. […]
A general note: In western blotting, separated proteins are transferred to a membrane and probed.

Series [1] has as its system Human umbilical vein endothelial cells (HUVEC). In words: HUVEC mitogenesis assay (tritiated thymidine incorporation). Format: cell-based. As to conditions: mitogenesis induced by VEGF, FGF or Complete Media (stimulus not given). The method, then:
B. HUVEC Mitogenesis Assay
Human umbilical vein endothelial cells (HUVEC) were cultured in EGM-Complete Media (endothelial growth media supplemented with 10% FBS, hydrocortisone, epidermal growth factor and bovine brain extract as per the supplier's directions). Cells, media and supplements were purchased from Clonetics (San Diego, Calif.). The HUVEC Mitogenesis Assay was used to measure inhibition of mitogenesis induced by VEGF, FGF or Complete Media. Cells were harvested by trypsinization, washed once and suspended in Complete Media (CM) at a concentration of 5,000 cells/0.15 ml. Cells were seeded into 96-well plates at 5,000 cells/well and incubated at 37° C. for 24 hours. Cells were washed once with serum-free media (SFM) and incubated under serum-free conditions for 24 hours. Non-serum starved control wells were cultured with CM during this period. Test compounds were prepared as 10 mM stock solutions in DMSO, diluted in SFM and added to wells over a concentration range (0.005-50 μM final concentration). Cells were incubated for 1 hour prior to addition of 50 ng/ml VEGF or FGF (R & D Systems, Minneapolis, Minn.). Complete media stimulated wells received the test compound and stimulus simultaneously. […] Plates were harvested onto filter mats with a Tomtec Harvester and counted with a Betaplate liquid scintillation counter (Wallac).

The target of the next series is T2, KDR tyrosine kinase (Homo sapiens, UniProt P35968).
T2 construct: poly-His6 (N); made in house; host or cells: SF-9 insect cells (recombinant baculovirus, pVL1393)
T2 sequence (P35968 789-1354): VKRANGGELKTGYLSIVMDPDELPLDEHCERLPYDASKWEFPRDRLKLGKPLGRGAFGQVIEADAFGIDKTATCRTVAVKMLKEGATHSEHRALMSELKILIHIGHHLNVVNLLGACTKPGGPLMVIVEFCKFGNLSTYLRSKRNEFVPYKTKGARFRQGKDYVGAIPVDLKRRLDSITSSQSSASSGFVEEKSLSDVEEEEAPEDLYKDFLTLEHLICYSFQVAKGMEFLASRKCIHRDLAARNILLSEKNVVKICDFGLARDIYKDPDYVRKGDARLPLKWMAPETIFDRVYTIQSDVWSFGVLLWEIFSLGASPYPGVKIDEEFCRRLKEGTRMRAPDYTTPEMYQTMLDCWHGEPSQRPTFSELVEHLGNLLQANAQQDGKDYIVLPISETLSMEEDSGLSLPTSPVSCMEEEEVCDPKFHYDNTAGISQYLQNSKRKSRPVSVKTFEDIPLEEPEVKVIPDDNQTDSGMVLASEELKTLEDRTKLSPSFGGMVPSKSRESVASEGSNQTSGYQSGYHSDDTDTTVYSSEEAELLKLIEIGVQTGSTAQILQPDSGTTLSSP
In words: KDR in vitro ELISA (tyrosine kinase activity). As to conditions: ATP 5 μM, 5% DMSO, poly(Glu,Tyr) 4:1 substrate. It counts as biochemical. An excerpt: The coding sequence for the KDR intra-cellular domain (aa789-1354) was generated through PCR using cDNAs isolated from HUVEC cells. A poly-His6 sequence was introduced at the N-terminus of this protein as well. This fragment was cloned into transfection vector pVL1393 at the Xba 1 and Not 1 site. Recombinant baculovirus (BV) was generated through co-transfection using the BaculoGold Transfection reagent (PharMingen). Recombinant BV was plaque purified and verified through Western analysis. For protein production, SF-9 cells were grown in SF-900-II medium at 2×10^6/ml, and were infected at 0.5 plaque forming units per cell (MOI). Cells were harvested at 48 hours post infection.
SF-9 cells expressing (His)6KDR(aa789-1354) were lysed by adding 50 ml of Triton X-100 lysis buffer (20 mM Tris, pH 8.0, 137 mM NaCl, 10% glycerol, 1% Triton X-100, 1 mM PMSF, 10 μg/ml aprotinin, 1 μg/ml leupeptin) to the cell pellet from 1 L of cell culture. The lysate was centrifuged at 19,000 rpm in a Sorval SS-34 rotor for 30 min at 4° C. The cell lysate was applied to a 5 ml NiCl2 chelating sepharose column, equilibrated with 50 mM HEPES, pH7.5, 0.3 M NaCl. KDR was eluted using the same buffer containing 0.25 M imidazole. Column fractions were analyzed using SDS-PAGE and an ELISA assay (below) which measures kinase activity. The purified KDR was exchanged into 25 mM HEPES, pH7.5, 25 mM NaCl, 5 mM DTT buffer and stored at −80° C.
The disclosed protocol can be adapted for determining activity with respect to a specific RTK. For example, preferred protocols for conducting the ELISA experiments for KDR is provided below. Adaptation of these protocols for determining a compound's activity for other members of the RTK family, as well as non-receptor tyrosine kinases, are well within the abilities of those in the art. […]
Stop with 1M Phosphoric acid. Shake on plate reader.
Read OD immediately at 450 nm
Optimal incubation times and enzyme reaction conditions vary slightly with enzyme preparations and are determined empirically for each lot.

Where only a bound is given, the exact number is not on record here.

The text below walks through data of patent US6534655B1, “Indeno[1,2-C]pyrazole derivatives for inhibiting tyrosine kinase activity” (BASF Aktiengesellschaft, priority 1997, dated 2003).

By melting point is commonly meant the temperature of the solid-liquid transition. The IC50 is the concentration at which inhibition is half-maximal.

T1 sequence (P35968 20-1356): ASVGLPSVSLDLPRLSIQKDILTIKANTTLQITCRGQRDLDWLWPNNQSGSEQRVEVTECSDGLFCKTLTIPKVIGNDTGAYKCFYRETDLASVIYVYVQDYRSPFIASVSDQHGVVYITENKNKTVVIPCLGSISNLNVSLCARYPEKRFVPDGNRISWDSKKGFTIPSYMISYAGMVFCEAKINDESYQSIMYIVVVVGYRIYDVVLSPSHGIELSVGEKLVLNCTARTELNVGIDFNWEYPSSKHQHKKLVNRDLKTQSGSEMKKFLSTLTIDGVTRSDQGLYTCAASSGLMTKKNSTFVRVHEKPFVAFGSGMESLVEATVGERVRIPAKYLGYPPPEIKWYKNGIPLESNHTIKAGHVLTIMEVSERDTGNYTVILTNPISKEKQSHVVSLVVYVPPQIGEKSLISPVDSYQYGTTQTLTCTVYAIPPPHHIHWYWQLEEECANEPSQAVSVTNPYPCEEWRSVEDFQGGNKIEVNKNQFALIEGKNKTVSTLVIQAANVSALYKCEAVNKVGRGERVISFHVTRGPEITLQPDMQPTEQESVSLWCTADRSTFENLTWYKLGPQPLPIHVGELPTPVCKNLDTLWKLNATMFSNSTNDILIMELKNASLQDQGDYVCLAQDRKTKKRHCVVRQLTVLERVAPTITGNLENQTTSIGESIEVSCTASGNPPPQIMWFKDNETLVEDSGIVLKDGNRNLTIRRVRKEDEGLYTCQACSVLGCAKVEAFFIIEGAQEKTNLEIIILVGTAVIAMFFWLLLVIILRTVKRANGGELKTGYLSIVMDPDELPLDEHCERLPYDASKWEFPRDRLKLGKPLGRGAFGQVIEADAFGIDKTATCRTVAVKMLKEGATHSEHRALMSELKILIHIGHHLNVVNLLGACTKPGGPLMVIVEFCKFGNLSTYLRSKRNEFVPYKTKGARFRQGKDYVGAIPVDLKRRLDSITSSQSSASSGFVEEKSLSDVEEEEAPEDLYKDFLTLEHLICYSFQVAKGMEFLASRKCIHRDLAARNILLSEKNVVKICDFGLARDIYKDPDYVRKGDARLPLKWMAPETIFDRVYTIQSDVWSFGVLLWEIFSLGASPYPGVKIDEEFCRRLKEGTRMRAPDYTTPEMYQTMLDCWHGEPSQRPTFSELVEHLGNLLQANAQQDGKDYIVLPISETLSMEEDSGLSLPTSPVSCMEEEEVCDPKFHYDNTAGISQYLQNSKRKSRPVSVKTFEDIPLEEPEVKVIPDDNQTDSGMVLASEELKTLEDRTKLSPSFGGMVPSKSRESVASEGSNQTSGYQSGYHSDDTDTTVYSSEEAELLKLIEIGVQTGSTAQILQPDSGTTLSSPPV

In turn, `COc1cc(-c2n[nH]c3c2C(=O)c2ccccc2-3)cc(OC)c1OC` [Example 2, 3-(3,4,5-Trimethoxyphenyl)indeno[1,2-c]pyrazol-4(1H)-one] had a melting point of 268 to 272 °C.

Molecule `CN1NC(c2ccccc2)C2=C1c1ccccc1C2=O` (stereo not shown) [Example 5, 1-methyl-3-phenylindeno[1,2-c]pyrazol-4(2H)-one] returned a melting point of 187 to 188 °C.

Molecule `COc1ccc(-c2n[nH]c3c2C(O)c2ccccc2-3)cc1OC` (stereo not shown) [Example 6, 3-(3,4-dimethoxyphenyl)-1,4-dihydroindeno[1,2-c]pyrazol-4-ol] showed a melting point of 197 to 199 °C.

`O=C1c2ccccc2-c2[nH]nc(-c3ccccc3)c21` [3-phenylindeno[1,2-c]pyrazol-4(1H)-one]: the IC50 on KDR was 3 µM; in series [1] it was less than 0.1 µM; at KDR tyrosine kinase it was 0.15 µM.

On KDR tyrosine kinase, `Cc1c2c(nn1-c1ccccc1)-c1ccccc1C2=O` displayed an IC50 of more than 100 µM.

On to `C1=NC(n2nc(-c3ccccc3)cc2-c2ccccc2)NC1` (stereo not shown), for which, on KDR tyrosine kinase, the IC50 is more than 100 µM.

Consider `OC1c2ccccc2-c2[nH]nc(-c3ccccc3)c21` (stereo not shown) [Example 7, 3-phenyl-1,4-dihydroindeno[1,2-c]pyrazol-4-ol], for which the melting point lay within 269 to 272 °C.

`O=C1c2ccccc2-c2[nH]nc(-c3ccc(Cl)cc3)c21` [Example 3, 3-(4-chlorophenyl)indeno[1,2-c]pyrazol-4(1H)-one]: the melting point is more than 330 °C.
